Assay results as given in patent US11878965B2, “Inhibitors of peptidylarginine deiminases” (Gilead Sciences, Inc., priority 2020, dated 2024).

target: human PAD4 (Homo sapiens (Human), UniProt Q9UM07); experiment: In Vitro PAD4 BAEE Biochemical Assay; conditions: human PAD4, BAEE substrate; 5 nM PAD4, 2 mM calcium chloride, 3 mM BAEE; geometric mean of multiple experiments
Experimental: The PCR product was ligated into linearized pET-SUMO vector (Invitrogen, Carlsbad, CA), which is part of the Champion™ pET SUMO Protein Expression System. After sequence verification for the correct orientation, the pET-SUMO-hPAD4 expression plasmid was transformed into BL21(DE3) cells.
E. Coli BL21(DE3) cells were inoculated in LB medium with kanamycin at 37° C. until A600 nm reached about 0.5. Protein expression was induced by addition of 0.5 mM IPTG (final) and continued overnight at 16° C. at 220 rpm.
Cells were harvested by centrifugation at 5000 rpm for 10 minutes at 4° C. The pellet was resuspended in 300 ml lysis buffer (20 mM Tris-HCl, pH 8.0, 1 mM EDTA, 500 mM NaCl, 1 mM (tris(2-carboxyethyl)phosphine) (TCEP), 10% glycerol, and 1% Triton X100 and EDTA free protease inhibitor) and lysed by 3× passage through a microfluidizer (Microfluidics, Newton, MA) at 18,000 psi. The cell lysate was clarified by centrifugation at 30,000 rpm for 60 minutes at 4° C. The supernatant was applied to a 5 ml Ni-HP (GE HealthCare Cat #17524701) column preequilibrated in Ni-A buffer (20 mM Tris-HCl, pH 8.0, 20 mM Imidazole, 1 mM TCEP, 10% glycerol, and 400 mM NaCl). Bound protein was eluted with a 0-100% linear gradient of 100 mL Ni-B buffer (Ni A buffer+0.5 M Imidazole).
The His-Sumo tag was cleaved using sumo protease (Thermo Fisher Cat #: 12588018) while dialyzing in buffer (20 mM Tris-HCl, pH 8.0, 1 mM EDTA, 500 mM NaCl, 1 mM TCEP, 10% glycerol). The protein was then reloaded onto a Ni-HP column for a reverse purification step and recovered in flow through fraction. The protein with His-Sumo tag removed was then polished using a 16/60 Superdex-200 gel filtration column with gel filtration buffer (20 mM Tris pH 8.0, NaCl 400 mM and 1 mM TCEP). The fractions containing the protein were pulled and frozen at −80° C.
In Vitro PAD4 BAEE Biochemical Assay
The enzymatic activity of human PAD4 was monitored in a biochemical assay in the presence or absence of compounds using the small peptidyl arginine mimic BAEE (Nα-Benzoyl-L-arginine ethyl ester hydrochloride) as substrate. PAD4 activity led to deimination of BAEE and release of ammonia. Levels of ammonia were monitored by using an amine coupling reaction and were indicative of PAD4 enzymatic activity.
One hundred nanoliters of test compounds dissolved in DMSO at various concentrations were dispensed into a 384-well black OptiPlate using a Labcyte Echo instrument. Ten microliters of a solution of recombinant PAD4 and calcium chloride diluted in PAD4 assay buffer (50 mM MOPS [3-(N-morpholino) propanesulfonic acid], pH 7.6; 50 mM sodium chloride; 0.05% Tween-20; 2 mM dithiothreitol) was added to the compound-containing plate and was incubated for 30 minutes at 25° C. Ten microliters of a solution of BAEE (Sigma-Aldrich #B4500) diluted in PAD4 assay buffer was then added to start the reaction. Final concentrations were 5 nM PAD4, 2 mM calcium chloride, and 3 mM BAEE. The reaction mixture was incubated at 25° C. for 2 hours and was stopped with the addition of 10 microliters of a solution of 75 mM EDTA (Ethylenediaminetetraacetic acid) in PAD4 assay buffer. Thirty microliters of detection solution (5 mM o-phthalaldehyde, 50 mM MOPS [3-(N-morpholino) propanesulfonic acid], pH 7.6; 50 mM sodium chloride; 0.05% Tween-20; 5 mM dithiothreitol) was then added and the reaction was incubated for 1 hour at 25° C. The level of fluorescent thiol-substituted isoindole resulting from the reaction of ammonia, o-phthalaldehyde, and dithiothreitol was measured on an Envision plate reader (PerkinElmer) with 405 nm excitation and 535 nm emission.

human PAD4, sequence (Q9UM07 2-663): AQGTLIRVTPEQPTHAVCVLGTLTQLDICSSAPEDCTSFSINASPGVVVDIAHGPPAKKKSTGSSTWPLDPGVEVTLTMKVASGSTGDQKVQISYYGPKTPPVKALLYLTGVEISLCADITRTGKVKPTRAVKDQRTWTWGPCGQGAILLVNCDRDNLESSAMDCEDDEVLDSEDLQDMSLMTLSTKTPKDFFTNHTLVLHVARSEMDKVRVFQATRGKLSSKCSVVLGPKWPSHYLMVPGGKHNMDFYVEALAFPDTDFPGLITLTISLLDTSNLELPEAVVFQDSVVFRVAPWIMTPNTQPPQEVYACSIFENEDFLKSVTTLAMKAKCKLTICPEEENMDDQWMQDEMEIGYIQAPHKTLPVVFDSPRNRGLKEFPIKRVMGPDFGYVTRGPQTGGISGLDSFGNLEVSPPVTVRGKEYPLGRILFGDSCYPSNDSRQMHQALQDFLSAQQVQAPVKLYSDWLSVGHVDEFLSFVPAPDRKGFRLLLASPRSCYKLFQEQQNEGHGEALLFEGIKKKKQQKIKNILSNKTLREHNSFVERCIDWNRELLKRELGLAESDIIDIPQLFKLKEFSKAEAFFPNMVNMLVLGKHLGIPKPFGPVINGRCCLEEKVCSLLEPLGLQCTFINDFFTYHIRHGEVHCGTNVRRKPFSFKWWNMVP

SMILES | IC50
COc1cc(C(=O)N2C[C@H](N)CCN2C)cc2nc(-c3cc4ccc([C@@H](C)NC(=O)c5cc(F)ccc5C)nc4n3CC3CC3)n(C)c12 [Example 197, N-((R)-1-(2-(5-((R)-5-amino-2-methylhexahydropyridazine-1-carbonyl)-7-methoxy-1-methyl-1H-benzo[d]imidazol-2-yl)-1-(cyclopropylmethyl)-1H-pyrrolo[2,3-b]pyridin-6-yl)ethyl)-5-fluoro-2-methylbenzamide] | 0.116 µM
COc1cccc(F)c1C(=O)N[C@H](C)c1ccc2cc(-c3nc4cc(C(=O)N5[C@H]6CC[C@@H]5[C@H](N)C6)cc(OC)c4n3C3CC3)n(CC3CC3)c2c1 [Example 149, N-((R)-1-(2-(5-((1R,2R,4S)-2-amino-7-azabicyclo[2.2.1]heptane-7-carbonyl)-1-cyclopropyl-7-methoxy-1H-benzo[d]imidazol-2-yl)-1-(cyclopropylmethyl)-1H-indol-6-yl)ethyl)-2-fluoro-6-methoxybenzamide] | 0.0954 µM
COc1cc(C(=O)N2C[C@H](N)CCN2C)cc2nc(-c3cc4ccc(C(C)(C)NC(=O)c5ccccc5)nc4n3CC3CC3)n(C)c12 [Example 209] | 0.199 µM
COc1cc(C(=O)N2[C@H]3CC[C@@H]2[C@H](N)C3)cc2nc(-c3cc4ccc([C@@H](C)NC(C)=O)nc4n3CC3CC3)n(C3CC3)c12 [Example 131, N-((R)-1-(2-(5-((1R,2R,4S)-2-amino-7-azabicyclo[2.2.1]heptane-7-carbonyl)-1-cyclopropyl-7-methoxy-1H-benzo[d]imidazol-2-yl)-1-(cyclopropylmethyl)-1H-pyrrolo[2,3-b]pyridin-6-yl)ethyl)acetamide] | 0.0259 µM
C[C@H]1CCCS(=O)(=O)N1c1ccc2cc(-c3nc4cc(C(=O)N5[C@H]6CC[C@@H]5[C@H](N)C6)ccc4n3C3CC3)n(CC3CC3)c2n1 [Example 98, ((1R,2R,4S)-2-amino-7-azabicyclo[2.2.1]heptan-7-yl) (1-cyclopropyl-2-(1-(cyclopropylmethyl)-6-((S)-3-methyl-1,1-dioxido-1,2-thiazinan-2-yl)-1H-pyrrolo[2,3-b]pyridin-2-yl)-1H-benzo[d]imidazol-5-yl)methanone] | 0.0189 µM
COc1cc(C(=O)N2CCC[C@@H](N)C2)cc2nc(-c3cc4ccc(N(c5ccccc5)S(C)(=O)=O)nc4n3CC3CC3)n(C)c12 [Example 13, (R)-N-(2-(5-(3-aminopiperidine-1-carbonyl)-7-methoxy-1-methyl-1H-benzo[d]imidazol-2-yl)-1-(cyclopropylmethyl)-1H-pyrrolo [2,3-b]pyridin-6-yl)-N-phenylmethanesulfonamide] | 3.57 µM
COc1cc(C(=O)N2C[C@H](N)CCN2C)cc2nc(-c3cc4ccc([C@@H](C)NC(=O)c5cc(F)cc(F)c5C)nc4n3CC3CC3)n(C)c12 [Example 213, N-((R)-1-(2-(5-((R)-5-amino-2-methylhexahydropyridazine-1-carbonyl)-7-methoxy-1-methyl-1H-benzo[d]imidazol-2-yl)-1-(cyclopropylmethyl)-1H-pyrrolo[2,3-b]pyridin-6-yl)ethyl)-3,5-difluoro-2-methylbenzamide] | 0.134 µM
COc1cc(C(=O)N2[C@H]3CC[C@@H]2[C@H](N)C3)cc2nc(-c3cc4ccc([C@@H](C)NC(=O)C56CC(F)(C5)C6)nc4n3CC3CC3)n(C)c12 [Example 121, N-((R)-1-(2-(5-((1R,2R,4S)-2-amino-7-azabicyclo[2.2.1]heptane-7-carbonyl)-7-methoxy-1-methyl-1H-benzo[d]imidazol-2-yl)-1-(cyclopropylmethyl)-1H-pyrrolo[2,3-b]pyridin-6-yl)ethyl)-3-fluorobicyclo[1.1.1]pentane-1-carboxamide] | 0.0463 µM
COc1nccc(-c2ccccc2)c1-c1ccc2cc(-c3nc4cc(C(=O)N5C[C@H](N)CC[C@@H]5C)cc(OC)c4n3C)n(CC3CC3)c2n1 [Example 277, ((2S,5R)-5-amino-2-methylpiperidin-1-yl)(2-(1-(cyclopropylmethyl)-6-(2-methoxy-4-phenylpyridin-3-yl)-1H-pyrrolo[2,3-b]pyridin-2-yl)-7-methoxy-1-methyl-1H-benzo[d]imidazol-5-yl)methanone] | 3.43 µM
COc1cc(C(=O)N2[C@H]3CC[C@@H]2[C@H](N)C3)cc2nc(-c3cc4ccc([C@@H](C)NC(=O)N5CCCC5)nc4n3CC3CC3)n(C)c12 [Example 234, N-((R)-1-(2-(5-((1R,2R,4S)-2-amino-7-azabicyclo[2.2.1]heptane-7-carbonyl)-7-methoxy-1-methyl-1H-benzo[d]imidazol-2-yl)-1-(cyclopropylmethyl)-1H-pyrrolo[2,3-b]pyridin-6-yl)ethyl)pyrrolidine-1-carboxamide] | 0.0343 µM

The next lines start with the values.

IC50 | SMILES
0.0535 µM | COc1cc(C(=O)N2C[C@H](N)[C@@H]3CC[C@H]2C3)cc2nc(-c3cc4ccc([C@@H](C)NC(=O)c5ccccc5)nc4n3CC3CC3)n(C)c12 [Example 222, N-((R)-1-(2-(5-((1S,4R,5R)-4-amino-2-azabicyclo[3.2.1]octane-2-carbonyl)-7-methoxy-1-methyl-1H-benzo[d]imidazol-2-yl)-1-(cyclopropylmethyl)-1H-pyrrolo[2,3-b]pyridin-6-yl)ethyl)benzamide]
0.221 µM | COc1cc(C(=O)N2C[C@H](N)CC[C@@H]2C)cc2nc(-c3cc4ccc(N(C(F)F)S(C)(=O)=O)nc4n3CC3CC3)n(C3CC3)c12 [Example 42, N-(2-(5-((2S,5R)-5-amino-2-methylpiperidine-1-carbonyl)-1-cyclopropyl-7-methoxy-1H-benzo[d]imidazol-2-yl)-1-(cyclopropylmethyl)-1H-pyrrolo [2,3-b]pyridin-6-yl)-N-(difluoromethyl) methanesulfonamide]
0.0707 µM | COc1cc(C(=O)N2CCC[C@@H](N)C2)cc2nc(-c3cc4ccc([C@@H](C)NC(C)=O)nc4n3CC3CC3)n(C3CC3)c12 [Example 132, N-((R)-1-(2-(5-((R)-3-aminopiperidine-1-carbonyl)-1-cyclopropyl-7-methoxy-1H-benzo[d]imidazol-2-yl)-1-(cyclopropylmethyl)-1H-pyrrolo[2,3-b]pyridin-6-yl)ethyl)acetamide]
0.0493 µM | COc1cc(C(=O)N2CCC[C@@H](N)C2)cc2nc(-c3cc4ccc([C@@H](C)N5CCCC5=O)nc4n3CC3CC3)n(C3CC3)c12 [Example 244, 1-((R)-1-(2-(5-((R)-3-aminopiperidine-1-carbonyl)-1-cyclopropyl-7-methoxy-1H-benzo[d]imidazol-2-yl)-1-(cyclopropylmethyl)-1H-pyrrolo[2,3-b]pyridin-6-yl)ethyl)pyrrolidin-2-one]
0.874 µM | COc1cc(C(=O)N2C[C@H](N)CC[C@@H]2C)cc2nc(-c3cc4ccc(C(=O)N(C)C)nc4n3CC3CC3)n(C)c12 [Example 250, 2-(5-((2S,5R)-5-amino-2-methylpiperidine-1-carbonyl)-7-methoxy-1-methyl-1H-benzo[d]imidazol-2-yl)-1-(cyclopropylmethyl)-N,N-dimethyl-1H-pyrrolo[2,3-b]pyridine-6-carboxamide]

same assay, conditions: recombinant PAD4 5 nM, 2 mM calcium chloride, 3 mM BAEE substrate; geometric mean of multiple experiments

IC50 | SMILES
0.0676 µM | COc1cc(C(=O)N2C[C@H](N)[C@@H]3CC[C@H]2C3)cc2nc(-c3cc4ccc([C@@H](C)NC(=O)[C@@H]5CC5(F)F)nc4n3CC3CC3)n(C)c12 [Example 311, (S)-N-((R)-1-(2-(5-((1S,4R,5R)-4-amino-2-azabicyclo[3.2.1]octane-2-carbonyl)-7-methoxy-1-methyl-1H-benzo[d]imidazol-2-yl)-1-(cyclopropylmethyl)-1H-pyrrolo[2,3-b]pyridin-6-yl)ethyl)-2,2-difluorocyclopropane-1-carboxamide]
